Source: US7632840B2, “Quinazoline compounds for the treatment of hyperproliferative disorders” (AstraZeneca AB, priority 2004, dated 2009)

Tests used:
[1] = system: KB cells; test: EGFR driven KB cell proliferation assay, Test (b); type: cell-based; conditions: Homo sapiens
Procedure: Following adhesion to the plate, the cells are treated with or without EGF (final concentration of 1 ng/ml) and with or without compound at a range of concentrations in dimethylsulfoxide (DMSO) (0.1% final) before incubation for 4 days. […] MTT solution was then tipped off, the plate gently tapped dry and the cells dissolved upon the addition of 100 μl of DMSO.
Absorbance of the solubilised cells was read at 540 nm using a Molecular Devices ThermoMax microplate reader. Inhibition of proliferation was expressed as an IC50 value. […] The range of proliferation was calculated from the positive (vehicle plus EGF) and negative (vehicle minus EGF) control values.

[2] = target: T1, EGFR tyrosine kinase (Homo sapiens, UniProt P00533); test: Protein tyrosine kinase phosphorylation assay, Test (a); type: biochemical; conditions: read-out: 1C50 (nM) Test (a) (Inhibition of EGFR tyrosine kinase protein phosphorylation)
T1 construct: Recombinant intracellular fragments of EGFR, erbB2 and erbB4; made in house; host or cells: baculovirus/Sf21 insect cells (cleared lysate used)
T1 sequence (P00533 669-1210 limits assumed): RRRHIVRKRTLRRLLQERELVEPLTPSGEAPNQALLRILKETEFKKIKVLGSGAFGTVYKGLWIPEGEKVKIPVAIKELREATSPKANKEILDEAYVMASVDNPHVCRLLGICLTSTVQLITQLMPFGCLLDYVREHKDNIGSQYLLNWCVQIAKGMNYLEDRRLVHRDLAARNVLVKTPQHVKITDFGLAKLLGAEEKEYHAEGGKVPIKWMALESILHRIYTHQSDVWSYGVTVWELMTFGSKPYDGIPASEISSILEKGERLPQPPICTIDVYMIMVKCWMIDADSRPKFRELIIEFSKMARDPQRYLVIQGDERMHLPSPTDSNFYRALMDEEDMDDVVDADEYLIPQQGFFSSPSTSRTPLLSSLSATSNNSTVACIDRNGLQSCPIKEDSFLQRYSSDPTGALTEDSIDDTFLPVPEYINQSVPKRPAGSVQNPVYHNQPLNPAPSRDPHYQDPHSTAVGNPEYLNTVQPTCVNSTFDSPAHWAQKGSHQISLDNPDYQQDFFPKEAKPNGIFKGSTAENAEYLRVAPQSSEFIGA
Procedure: Recombinant intracellular fragments of EGFR, erbB2 and erbB4 (accession numbers X00588, X03363 and L07868 respectively) were cloned and expressed in the baculovirus/Sf21 system. Lysates were prepared from these cells by treatment with ice-cold lysis buffer (20 mM N-2-hydroxyethylpiperizine-N′-2-ethanesulfonic acid (HEPES) pH7.5, 150 mM NaCl, 10% glycerol, 1% Triton X-100, 1.5 mM MgCl2, 1 mM ethylene glycol-bis(β-aminoethyl ether) N′,N′,N′,N′-tetraacetic acid (EGTA), plus protease inhibitors and then cleared by centrifugation.
Constitutive kinase activity of these recombinant proteins was determined by their ability to phosphorylate a synthetic peptide (made up of a random co-polymer of Glutamic Acid, Alanine and Tyrosine in the ratio of 6:3:1). […]
The immobilised phospho-peptide product of the reaction was detected by immunological methods. […] After further washing, HRP activity in each well of the plate was measured colorimetrically using 22′-Azino-di-[3-ethylbenzthiazoline sulfonate (6)] diammonium salt crystals (ABTS™ from Roche) as a substrate.
Kinase inhibition for a given compound was expressed as an IC50 value. […] The range of phosphorylation was calculated from the positive (vehicle plus ATP) and negative (vehicle minus ATP) control values.

IC50 [1] [nM]	IC50 [2] [nM]	SMILES
36	17	CNC(=O)C1(N(C)Cc2cc3c(Nc4cccc(Cl)c4F)ncnc3cc2OC)CCN(C)CC1 [Example 20, 4-[({4-[(3-chloro-2-fluorophenyl)amino]-7-methoxyquinazolin-6-yl}methyl)(methyl)amino]-N,1-dimethylpiperidine-4-carboxamide]
91	–	COc1cc2ncnc(Nc3cccc(Cl)c3F)c2cc1CN(C)C1(C(N)=O)CCN(S(C)(=O)=O)CC1 [Example 66, 4-[({4-[(3-chloro-2-fluorophenyl)amino]-7-methoxyquinazolin-6-yl}methyl)(methyl)amino]-1-(methylsulfonyl)piperidine-4-carboxamide]
